Holding throughout (format): cell-based
For series [1], the system named is Acinetobacter baumannii 872842. The conditions noted are these: 872842. Summed up:
(§1)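 CLSI broth microdilution in cation-adjusted Mueller-Hinton II broth with 0.002% polysorbate 80 (final), inoculum appr. 10^6 CFU/mL, peptides in serial two-fold dilutions. MIC (μg/mL) is the lowest concentration without visible growth after 18-20 h at 35° C.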

Series [2] has as its system Acinetobacter baumannii DSM 30008. The note with it: DSM 30008. The method in brief:
as §1

The test system of series [3] is Enterobacter cloacae 848840. The note with it: 848840. Summed up: as §1
The subject of a further series is Escherichia coli 926415. The conditions noted are these: 926415. The method in brief:
as §1

Series [4] relates to Escherichia coli ATCC 25922. The note with it: ATCC 25922. Summed up: as §1
In series [5] the test system is Klebsiella pneumoniae 968733. The conditions noted are these: 968733. Summed up: as §1
Series [6] deals with Klebsiella pneumoniae SSI #3010. The note with it: SSI #3010. Summed up: as §1
Series [7] has as its system Pseudomonas aeruginosa ATCC 27853. The note with it: ATCC 27853. Summed up: as §1
Series [8] deals with human red blood cells (hRBC). In words: Hemolysis. The conditions noted are these: red cells of human, 1 h, 200. The method in brief:
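Washed fresh hRBC (20% v/v) were incubated with peptides at 200 μg/mL for 1 h at 37° C with shaking at 300 rpm. Supernatant OD540 was read after centrifugation and dilution, blank-corrected, and expressed as percent of the 2% Triton X-100 (100% lysis) control; PBS with 10% water gave 0%.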

Values after ≈ are worked out from the molar mass of the structure shown. Where a SMILES comes first, the peptide text is derived from it. Bridges are numbered along the chain shown (N, C = ends). Roman numbers before positions name the chains, in order. [ ]: non-standard residue; d: D form. Pen = CC(C)(S)[C@H](N)C(=O)O; Hiv = CC(C)[C@H](O)C(=O)O; dDab = NCC[C@@H](N)C(=O)O; Dab = NCC[C@H](N)C(=O)O; Dap = NC[C@H](N)C(=O)O

One may read the MIC as the lowest concentration that inhibits growth of the organism. `CC(=O)N[C@H](C(=O)N[C@H]1CC(=O)NCC[C@@H](C(=O)N[C@@H](CO)C(N)=O)NC(=O)[C@H](C(C)C)NC(=O)[C@H](CO)NC(=O)[C@H](Cc2c[nH]c3ccccc23)NC(=O)CNC(=O)[C@@H](CCN)NC(=O)[C@H](CCC(=O)N[C@@H](CCN)C(=O)N[C@H](C(=O)N[C@@H](CN)C(=O)N[C@H]2CCNC(=O)[C@H]([C@@H](C)O)NC(=O)[C@H](CCN)NC(=O)[C@H](CCN)NC(=O)[C@H](CC(C)C)NC(=O)[C@@H](CC(C)C)NC(=O)[C@H](CCN)NC2=O)[C@@H](C)O)NC(=O)[C@H](CO)NC(=O)[C@H](Cc2ccc(O)cc2)NC1=O)C(C)C` [Ex. 292] (I: Ac-VDYSE[dDab]GWSV[Dab]S-NH2 / II: [Dab]T[Dap][Dab][Dab][dL]L[Dab][Dab]T; lactam I:2-I:11, II:4-II:C; amide I:5-II:N): the MIC in [1] came to 0.5 µg/mL (≈ 0.213 µM); in series [2], 0.125 µg/mL (≈ 0.0532 µM); in series [3], 1 µg/mL (≈ 0.426 µM); with Escherichia coli 926415 it was 1 µg/mL (≈ 0.426 µM); in [4] it was 0.0625 µg/mL (≈ 0.0266 µM); in series [5], 4 µg/mL (≈ 1.7 µM). The MIC amounted to 0.25 µg/mL (≈ 0.106 µM) in [6] and 0.125 µg/mL (≈ 0.0532 µM) in [7]. Also, the “Hemolysis at 200 μg/mL” value in [8] is given as under 1%.
On to `CC(C)C[C@@H]1NC(=O)[C@@H](CC(C)C)NC(=O)[C@H](CCN)NC(=O)[C@@H](NC(=O)[C@H](CN)NC(=O)[C@@H](NC(=O)[C@H](CCN)NC(=O)CC[C@@H]2NC(=O)[C@H](CCN)NC(=O)[C@H](Cc3ccc(O)cc3)NC(=O)[C@@H](NC(=O)[C@@H](O)C(C)C)CSSC(C)(C)[C@@H](C(=O)N[C@@H](CO)C(N)=O)NC(=O)[C@H](C(C)C)NC(=O)[C@H](CO)NC(=O)[C@H](Cc3c[nH]c4ccccc34)NC(=O)[C@H](CO)NC(=O)[C@@H](CCN)NC2=O)[C@@H](C)O)CCNC(=O)[C@H]([C@@H](C)O)NC(=O)[C@H](CCN)NC(=O)[C@H](CCN)NC1=O` [Ex. 301] (I: H-[Hiv]CY[Dab]E[dDab]SWSV[Pen]S-NH2 / II: [Dab]T[Dap][Dab][Dab][dL]L[Dab][Dab]T; disulfide I:2-I:11; amide I:5-II:N; lactam II:4-II:C), for which the MIC in series [1] turned out to be 0.25 µg/mL (≈ 0.105 µM); in [3], 0.125 µg/mL (≈ 0.0524 µM); against Escherichia coli 926415, 0.125 µg/mL (≈ 0.0524 µM); in series [5], 0.5 µg/mL (≈ 0.21 µM). In addition, in series [2], the “Acinetobacter baumannii DSM 30008 MIC” value was determined as 0.0625 µg/mL. In addition, in [4], the “Escherichia coli ATCC 25922 MIC” value stood at 0.0625 µg/mL. In addition, the “Klebsiella pneumoniae SSI #3010 MIC” value in series [6] came to 0.125 µg/mL. For the same compound, the “Pseudomonas aeruginosa ATCC 27853 MIC” value in [7] was found to be 0.125 µg/mL. Besides, the “Hemolysis at 200 μg/mL” value in series [8] came out at 2%.
Take `CC(=O)N[C@H](C(=O)N[C@H]1CCN(C)C(=O)C[C@@H](C(=O)N[C@@H](CO)C(N)=O)NC(=O)[C@H](C(C)C)NC(=O)[C@H](CO)NC(=O)[C@H](Cc2c[nH]c3ccccc23)NC(=O)[C@H](CO)NC(=O)[C@@H](CCN)NC(=O)[C@H](CCC(=O)N[C@@H](CCN)C(=O)N[C@H](C(=O)N[C@@H](CN)C(=O)N[C@H]2CCNC(=O)[C@H]([C@@H](C)O)NC(=O)[C@H](CCN)NC(=O)[C@H](CCN)NC(=O)[C@H](CC(C)C)NC(=O)[C@@H](CC(C)C)NC(=O)[C@H](CCN)NC2=O)[C@@H](C)O)NC(=O)[C@H](CCN)NC(=O)[C@H](Cc2ccc(O)cc2)NC1=O)C(C)C` [Ex. 302]: the MIC in series [1] amounted to 0.5 µg/mL (≈ 0.208 µM); in [3], 0.5 µg/mL (≈ 0.208 µM); with Escherichia coli 926415 it was 2 µg/mL (≈ 0.831 µM); in series [5] it was 2 µg/mL (≈ 0.831 µM). Moreover, the “Acinetobacter baumannii DSM 30008 MIC” value in series [2] was 0.125 µg/mL. Besides, the “Escherichia coli ATCC 25922 MIC” value in [4] is 0.0625 µg/mL. In addition, the “Klebsiella pneumoniae SSI #3010 MIC” value in series [6] was 0.125 µg/mL. In addition, in series [7], the “Pseudomonas aeruginosa ATCC 27853 MIC” value is 0.125 µg/mL. Moreover, in series [8], the “Hemolysis at 200 μg/mL” value is 3%.
